PMC11190964 (Journal of medicinal chemistry, 2023)

Legend:
MM.1S cells [1] = assay: Proliferation / growth rate inhibition assay; assay type: cell-based; conditions: for antiproliferative activity / toxicity, single agent: comparator inhibitors, single-agent treatment
JNK2 [2] = biological target: T1, JNK2 (Homo sapiens, UniProt P45984); assay: PhosphoSens kinetic assay; assay type: biochemical; conditions: JNK1 and JNK2
Target sequence in this assay (P45984 whole entry): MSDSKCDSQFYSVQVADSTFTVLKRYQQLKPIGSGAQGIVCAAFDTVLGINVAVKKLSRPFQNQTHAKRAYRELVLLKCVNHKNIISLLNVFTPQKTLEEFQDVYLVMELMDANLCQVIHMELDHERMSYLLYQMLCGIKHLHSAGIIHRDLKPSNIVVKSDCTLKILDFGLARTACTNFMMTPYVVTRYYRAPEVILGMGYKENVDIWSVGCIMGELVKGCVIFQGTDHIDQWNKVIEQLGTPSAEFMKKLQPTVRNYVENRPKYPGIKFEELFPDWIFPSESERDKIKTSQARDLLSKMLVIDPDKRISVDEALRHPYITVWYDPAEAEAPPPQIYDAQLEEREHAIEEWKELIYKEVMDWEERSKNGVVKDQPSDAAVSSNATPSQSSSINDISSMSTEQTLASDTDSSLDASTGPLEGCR

JNK2 [3] = biological target: T1, JNK2; assay: Pull-down competition assay with biotin-JNK-IN-7, JNK2; assay type: cell-based; conditions: MM.1S cells, 6 h; both JNK1 and JNK2
Target sequence in this assay (P45984 whole entry): as above

[4] = tested on: Bortezomib-resistant ANBL6 cells; assay: Antiproliferative assay, Bortezomib-resistant ANBL6; assay type: cell-based; conditions: parental ANBL6 and Bortezomib-resistant ANBL6 cells
MM.1S cells [5] = assay: Apoptosis; assay type: cell-based; conditions: PARP cleavage, caspase 3 cleavage, Annexin V/PI staining
JNK2 [6] = biological target: T1, JNK2; assay: Z′-Lyte fixed time point kinase assay, JNK2; conditions: fixed time point biochemical kinase assay
Target sequence in this assay (P45984 whole entry): as above

[7] = tested on: panel of more than 400 kinases; assay: Kinome-wide selectivity panel; conditions: strong binding to EGFR, CK1, DDR1, CDK7, Aurora A and B
MDA-MB-231 cells = assay: Vacuole formation; assay type: cell-based
PIKFYVE = PIKFYVE (Homo sapiens, UniProt Q9Y2I7); assay: PIKFYVE NanoBRET target engagement assay; assay type: cell-based; conditions: transfected HEK293T cells, 3 h
Chain of PIKFYVE (Q9Y2I7 whole entry): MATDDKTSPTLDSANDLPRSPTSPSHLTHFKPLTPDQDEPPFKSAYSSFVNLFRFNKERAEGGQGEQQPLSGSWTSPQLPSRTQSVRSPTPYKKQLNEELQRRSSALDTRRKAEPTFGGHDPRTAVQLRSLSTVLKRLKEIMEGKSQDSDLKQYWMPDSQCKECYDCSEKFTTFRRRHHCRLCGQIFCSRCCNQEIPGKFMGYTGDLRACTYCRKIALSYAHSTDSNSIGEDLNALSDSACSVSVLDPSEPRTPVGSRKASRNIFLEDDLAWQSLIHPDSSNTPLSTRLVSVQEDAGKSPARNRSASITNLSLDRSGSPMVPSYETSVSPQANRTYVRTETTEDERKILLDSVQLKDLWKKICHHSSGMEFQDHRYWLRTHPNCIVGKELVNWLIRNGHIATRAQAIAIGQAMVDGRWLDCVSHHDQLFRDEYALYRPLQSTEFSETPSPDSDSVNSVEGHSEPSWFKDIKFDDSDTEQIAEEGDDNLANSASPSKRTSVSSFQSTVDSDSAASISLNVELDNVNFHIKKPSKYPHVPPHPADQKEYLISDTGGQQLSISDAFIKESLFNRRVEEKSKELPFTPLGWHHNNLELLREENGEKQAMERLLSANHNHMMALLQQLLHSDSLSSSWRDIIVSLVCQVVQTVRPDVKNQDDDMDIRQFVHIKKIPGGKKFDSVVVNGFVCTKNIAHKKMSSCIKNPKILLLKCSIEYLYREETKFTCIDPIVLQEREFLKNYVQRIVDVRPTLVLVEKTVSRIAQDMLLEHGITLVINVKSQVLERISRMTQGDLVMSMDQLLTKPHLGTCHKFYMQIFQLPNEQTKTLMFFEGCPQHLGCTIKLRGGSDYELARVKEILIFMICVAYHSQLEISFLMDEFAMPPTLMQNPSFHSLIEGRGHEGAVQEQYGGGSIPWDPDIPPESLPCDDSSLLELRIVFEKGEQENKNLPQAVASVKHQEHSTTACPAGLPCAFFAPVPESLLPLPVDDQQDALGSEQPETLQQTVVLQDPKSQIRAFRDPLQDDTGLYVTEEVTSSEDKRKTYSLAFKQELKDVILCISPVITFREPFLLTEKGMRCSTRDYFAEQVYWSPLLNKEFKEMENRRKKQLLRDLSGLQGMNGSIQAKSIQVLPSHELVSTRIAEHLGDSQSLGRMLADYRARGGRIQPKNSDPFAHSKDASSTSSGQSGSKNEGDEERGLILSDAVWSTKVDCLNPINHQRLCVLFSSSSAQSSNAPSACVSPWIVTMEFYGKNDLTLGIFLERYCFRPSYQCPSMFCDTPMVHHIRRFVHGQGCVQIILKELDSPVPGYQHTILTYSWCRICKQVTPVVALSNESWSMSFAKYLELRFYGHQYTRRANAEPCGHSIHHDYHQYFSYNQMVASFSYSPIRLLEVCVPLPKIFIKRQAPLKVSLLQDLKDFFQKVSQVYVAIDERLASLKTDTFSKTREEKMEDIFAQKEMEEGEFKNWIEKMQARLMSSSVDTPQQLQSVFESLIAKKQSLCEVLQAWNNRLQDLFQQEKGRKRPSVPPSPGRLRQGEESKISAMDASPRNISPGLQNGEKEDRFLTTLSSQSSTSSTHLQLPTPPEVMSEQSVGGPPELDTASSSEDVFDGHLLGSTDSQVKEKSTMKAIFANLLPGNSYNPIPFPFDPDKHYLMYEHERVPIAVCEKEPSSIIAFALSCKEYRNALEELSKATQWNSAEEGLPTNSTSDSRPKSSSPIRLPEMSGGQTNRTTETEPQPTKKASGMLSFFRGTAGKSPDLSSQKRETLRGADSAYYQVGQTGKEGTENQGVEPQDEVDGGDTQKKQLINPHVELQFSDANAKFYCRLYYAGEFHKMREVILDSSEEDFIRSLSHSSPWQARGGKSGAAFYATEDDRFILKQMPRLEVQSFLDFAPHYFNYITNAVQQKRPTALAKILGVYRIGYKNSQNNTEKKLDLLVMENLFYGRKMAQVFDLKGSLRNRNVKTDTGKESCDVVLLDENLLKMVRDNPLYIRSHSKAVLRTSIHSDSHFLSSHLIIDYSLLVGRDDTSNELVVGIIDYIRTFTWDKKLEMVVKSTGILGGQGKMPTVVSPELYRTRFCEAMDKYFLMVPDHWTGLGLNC

JNK2 [8] = biological target: T1, JNK2; assay: Mass labeling of recombinant JNK2 protein; assay type: binding; conditions: room temperature, 60 min incubation; trypsin digest, CE-MS/MS
Target sequence in this assay (P45984 4-364): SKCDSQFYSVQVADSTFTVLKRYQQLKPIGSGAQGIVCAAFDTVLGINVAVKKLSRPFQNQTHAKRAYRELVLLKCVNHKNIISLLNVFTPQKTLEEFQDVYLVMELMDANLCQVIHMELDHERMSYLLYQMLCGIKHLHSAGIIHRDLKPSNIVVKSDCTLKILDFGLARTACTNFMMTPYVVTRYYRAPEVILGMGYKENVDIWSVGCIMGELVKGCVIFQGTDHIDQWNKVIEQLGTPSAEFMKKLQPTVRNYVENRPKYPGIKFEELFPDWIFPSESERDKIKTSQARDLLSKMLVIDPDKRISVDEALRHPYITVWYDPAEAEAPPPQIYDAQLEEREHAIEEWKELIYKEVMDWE

JNK1 = JNK1 (Homo sapiens, UniProt P45983); assay: JNK1 NanoBRET target engagement assay; assay type: cell-based; conditions: HEK293T cells; compared with JNK-IN-8
Chain of JNK1 (P45983 whole entry): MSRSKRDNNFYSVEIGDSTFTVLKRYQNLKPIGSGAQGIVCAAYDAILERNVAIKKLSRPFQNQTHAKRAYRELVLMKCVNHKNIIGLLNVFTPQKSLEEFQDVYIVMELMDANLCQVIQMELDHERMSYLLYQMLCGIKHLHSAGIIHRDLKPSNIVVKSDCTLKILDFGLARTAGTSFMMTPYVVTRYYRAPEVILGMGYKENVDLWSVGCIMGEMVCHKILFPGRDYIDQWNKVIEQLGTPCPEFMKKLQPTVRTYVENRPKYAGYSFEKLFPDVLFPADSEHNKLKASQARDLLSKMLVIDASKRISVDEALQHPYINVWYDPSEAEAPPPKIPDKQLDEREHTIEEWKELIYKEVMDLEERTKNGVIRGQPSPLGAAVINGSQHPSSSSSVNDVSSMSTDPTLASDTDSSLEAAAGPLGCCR

[9] = tested on: HAP1 parental cells and JNK2-knockout cell lines; assay: Antiproliferative activity in HAP1 parental and JNK2-knockout cells; assay type: cell-based

With `O[C@H]1CC[C@H](Nc2ncc3nc(Nc4c(F)cc(F)cc4F)n([C@H]4CCOC4)c3n2)CC1` [CC930] the “protection from YL5084-mediated cell killing” value (MM.1S cells [1]; 10 μM pretreatment, MM.1S cells) was “did not protect” and the “antiproliferative activity / toxicity, single agent” value (MM.1S cells [1]) was “did not exhibit antiproliferative activity even at micromolar concentrations”.

In the case of `Cc1cc(NC(=O)c2cccc(NC(=O)/C=C/CN(C)C)c2)ccc1Nc1nccc(-c2cccnc2)n1` [JNK-IN-8], the “potency JNK2 versus JNK1 in kinetic assay” value (JNK2 [2]) is reported as “almost equipotent against both”, the “engagement of JNK1 and JNK2 in pull down” value (JNK2 [3]) is reported as “engaged both JNK1 and JNK2 at the same concentration” and the “antiproliferative effect in ANBL6 cells” value [4] is reported as “minimal effect”. For the same compound, the “induction of apoptosis” value (MM.1S cells [5]) was “failed to induce apoptotic cell death to the same level”.

With `CN(C)C/C=C/C(=O)Nc1ccc(C(=O)Nc2cccc(Nc3nccc(-c4c(-c5ccccc5)nn5ccccc45)n3)c2)cc1` [THZ-3–60-1] the “selectivity JNK2 versus JNK1” value (JNK2 [6]) was “exhibited selectivity for JNK2 versus JNK1” and the “kinome-wide selectivity” value [7] was “poor kinome-wide selectivity”.

`O=c1ncn2nc(Sc3ccc(F)cc3F)ccc2c1-c1c(Cl)cccc1Cl` [VX745] was tested, and the “antiproliferative activity / toxicity, single agent” value (MM.1S cells [1]) was “not toxic”.

In the case of `CN(C)C/C=C/C(=O)Nc1ccc(C(=O)N2CC[C@H](Nc3nccc(-c4c(-c5ccccc5)nn5ccccc45)n3)C2)cc1` [YL2056, (S,E)-4-(Dimethylamino)-N-[4-(3-{[4-(2-phenylpyrazolo[1,5-a]pyridin-3-yl)pyrimidin-2-yl]amino}pyrrolidine-1-carbonyl)phenyl]but-2-enamide], the “vacuole formation” value (MDA-MB-231 cells; MDA-MB-231, phenotype of PIKFYVE inhibition) is reported as “induced”, the “PIKFYVE binding in NanoBRET” value (PIKFYVE) is reported as “binds to PIKFYVE more strongly than its reversible counterpart” and the “covalent modification site on JNK2” value (JNK2 [8]) is reported as “exclusive modification on JNK2 Cys116”.

In the case of `C[C@H]1CN(C(=O)c2ccc(NC(=O)/C=C/CN(C)C)cc2)C[C@H]1Nc1nccc(-c2c(-c3ccccc3)nn3ccccc23)n1` [YL5084, (E)-4-(Dimethylamino)-N-[4-((3S,4S)-3-methyl-4-{[4-(2-phenylpyrazolo[1,5-a]pyridin-3-yl)pyrimidin-2-yl]amino}pyrrolidine-1-carbonyl)phenyl]but-2-enamide], the “GR50 (antiproliferative)” value (MM.1S cells [1]; multiple myeloma (MM) cell lines, 72 h) is reported as 200 to 300 nM, the “vacuole formation” value (MDA-MB-231 cells; up to a concentration of 4 μM) is reported as “did not induce vacuole formation” and the “JNK1 engagement in NanoBRET” value (JNK1) is reported as “significantly less engagement of JNK1”. For the same compound, the “induction of apoptosis” value (MM.1S cells [5]) was “induced apoptosis” and the “antiproliferative activity, parental vs JNK2-knockout” value [9] was “equipotent antiproliferative activity”.

`C[C@H]1CN(C(=O)c2ccc(NC(=O)CCCN(C)C)cc2)C[C@H]1Nc1nccc(-c2c(-c3ccccc3)nn3ccccc23)n1` [YL5084R, 4-(Dimethylamino)-N-[4-((3S,4S)-3-methyl-4-{[4-(2-phenylpyrazolo[1,5-a]pyridin-3-yl)pyrimidin-2-yl]amino}pyrrolidine-1-carbonyl)phenyl]butanamide] was tested, and the “fold weaker antiproliferative activity than YL5084” value (MM.1S cells [1]; multiple myeloma (MM) cell lines, GR50) was 15 fold.
